These results are taken from patent US4341792A, “Heterobicyclic keto- and amino-acids, esters and amides” (Pfizer Inc., priority 1979, dated 1982).

Assay [1] relates to diaphragm tissue from fat-fed rats (pyruvate oxidation). The assay is described as follows: Pyruvate oxidation by diaphragm tissue from fat-fed rats in vitro (carbon-14 from labelled pyruvate into carbon dioxide). The format is cell-based. To be noted: fat-fed rat diaphragm, read-out: % Stimulation (pyruvate oxidation); for activation at 500 µM: concentration 0.5 m. mol.; for activation at 1000 µM: concentration 1 m. mol.; for activation at 2000 µM: concentration 2 m. mol. The protocol:
(1) increase the oxidation of glucose and/or pyruvate by isolated rat muscle preparations in vitro; The compounds of formulae (I) and (II) have been tested for their ability to increase the oxidation of glucose and/or pyruvate as follows: Diaphragm tissue is obtained from rats fed on a high fat diet similar to `Diet B` described by Zaragoza and Felber, Horm. Metab. Res., 2, 323 (1970). Pyruvate oxidation by such tissue is assessed by measurement of the rate of incorporation of carbon-14 from carbon-14-labelled pyruvate into carbon dioxide in vitro, as described by Bringold, Eur. J. Biochem., 26, 360 (1972). The rate of pyruvate oxidation is depressed by 50-75% compared with that by diaphragm tissue from rats fed on a normal diet. When the compounds of the invention are added to the medium, they are found to stimulate pyruvate oxidation by diaphragm tissue from fat-fed rats in a dose dependent manner.

Assay [2] concerns pyruvate dehydrogenase enzyme (PDH). Briefly: Increase in proportion of active form of pyruvate dehydrogenase (PDHa/PDHt) in hearts of fat-fed rats in vivo. The settings on record: fat-fed rat heart. The protocol: (2) increase the proportion of the active form of the enzyme pyruvate dehydrogenase (PDH) in organs of animals (e.g., rat heart) in vivo; and The ability of the compounds of this invention to increase the proportion of the active form of the pyruvate dehydrogenase enzyme has been measured in the following test: Rats fed on a high fat diet as in the previous test, are treated either with placebo or with the compound of formula (I) or (II) by sub-cutaneous or intravenous injection or by oral administration. After 11/2 hours the rat hearts are removed and homogenized under conditions which minimize changes in the proportion of the pyruvate dehydrogenase enzyme (PDH) which is present in the active form, as described by Whitehouse and Randle, Biochem, J., 134, 651 (1973). The total amount of the enzyme present (PDHt) and the amount which is present in the active form (PDHa) are assessed by a method similar to that described by Taylor et al., J. Biol. Chem., 248, 73 (1973). The fat-feeding process is found to depress the ratio […] from a normal value of about 0.7 to a value in the range from 0.1 to 0.3. Treatment of fat-fed rats with the compounds of formula (I) or (II) parenterally increases this ratio in a dose-dependent manner. The increase in […] ration affected by certain of the compounds when administered by subcutaneous infection at the dosage indicated is shown in the following table: […]

[3] abbreviates: 0.6 mmol/kg subcutaneous, placebo 0.12.

On to `O=C(O)C(=O)c1ccc2c(c1)CCCO2` [Example 4, 6-Chromanylglyoxylic Acid], for which the activation at 500 µM in assay [1] was 69%.
In the case of `Cc1cc2cc(C(=O)C(=O)O)ccc2o1` [Example 12, 2-Methyl-5-benzo(b)furanylglyoxylic Acid], in assay [2] (0.3 mmol/kg subcutaneous, placebo 0.12), the PDHa/PDHt ratio was 0.36. Besides, the activation at 500 µM in assay [1] was found to be 58%.
Turning to `NC(C(=O)O)c1ccc2c(c1)CCS2` (racemic) [Example 13, DL-2-[2,3-Dihydro-5-benzo(b)thienyl]glycine], in assay [1], the activation at 500 µM came to 21%.
In the case of `O=C(O)C(=O)c1ccc2c(c1)CCS2` [Example 2, 2,3-Dihydro-5-benzo(b)thienylglyoxylic Acid], in assay [2] (1.2 mmol/kg subcutaneous, placebo 0.27), the PDHa/PDHt ratio was found to be 0.48. In assay [1], the activation at 1000 µM came to 105%.
`O=C(O)C(=O)c1ccc2occc2c1` [Example 8, 5-Benzo(b)furanylglyoxlic Acid]: the activation at 500 µM in assay [1] was found to be 95%.
For `COCCNC(=O)C(N)c1ccc2c(c1)CCO2.Cl` (racemic) [Example 7, DL-N-(2-Methoxyethyl)-α-amino-2,3-dihydro-5-benzo(b)furanylacetamide Hydrochloride], the PDHa/PDHt ratio in assay [2] (setting [3]) is 0.47. In assay [1], the activation at 500 µM was determined as 23%.
In the case of `O=C(O)C(=O)c1ccc2oc(-c3ccccc3)cc2c1` [Example 11, 2-Phenyl-5-benzo(b)furanyl Glyoxylic Acid], the PDHa/PDHt ratio in assay [2] (0.3 mmol/kg subcutaneous, placebo 0.20) was found to be 0.26. In addition, the activation at 2000 µM in assay [1] came out at 99%.
For `O=C(O)C(=O)c1ccc2c(c1)CCO2` [Example 3, 2,3-Dihydro-5-benzo(b)furanylglyoxylic Acid], in assay [2] (0.3 mmol/kg subcutaneous, placebo 0.11), the PDHa/PDHt ratio was 0.21. In addition, in assay [1], the activation at 1000 µM turned out to be 128%.
Consider `NC(C(=O)O)c1ccc2occc2c1` (racemic) [Example 9, DL-2-[5-Benzo(b)furanyl]glycine], for which the activation at 500 µM in assay [1] amounted to 42%.
Take `NC(=O)C(N)c1ccc2c(c1)CCS2` (racemic) [Example 15, DL-2-[2,3-Dihydro-5-benzo(b)thienyl]glycinamide]: the activation at 2000 µM in assay [1] was found to be 11%.
On to `NC(=O)C(N)c1ccc2c(c1)CCO2` (racemic) [Example 6, DL-α-Amino-2,3-dihydro-5-benzo(b)furanylacetamide], for which, in assay [2] (setting [3]), the PDHa/PDHt ratio amounted to 0.46. Also, in assay [1], the activation at 500 µM was 29%.
Take `NC(=O)C(N)c1ccc2occc2c1` (racemic) [Example 10, DL-2-[5-Benzo(b)furanyl]glycinamide]: the activation at 500 µM in assay [1] was 46%.
